Legend:
EGFR (Tyr 1068) = EGFR (Tyr 1068) (Homo sapiens, UniProt P00533); assay: Western blotting of EGFR phosphorylation in keratinocytes; conditions: with or without TGFa or TNFa, 24 h
IL-8, keratinocytes = assay: Secreted IL-8 levels in keratinocytes (Luminex); type: cell-based; conditions: with or without TGFa or TNFa, 24 h, supernatant
Experimental: (§1) Evaluations were carried out with the Luminex bead technology. In these experiments keratinocytes were treated with anti-EGFR inihibitors followed by treatment with or without TGF alpha or TNF alpha.
(§2) After 24 h, cellular supernatants were collected and levels of IL-8 were quantified using the Luminex technology.

IL-8, U87MG = assay: Secreted IL-8 levels in U87MG (Luminex); type: cell-based; conditions: 100 ng/ml antibody, stimulated with 100 ng/ml TGFa, number of experiments=1
Experimental: as §2
(§3) Cells were treated with 100 ng/ml Cmab or Mmab and stimulated with 100 ng/ml TGFa; number of experiments=1

IL-8, A431 = assay: Secreted IL-8 levels in A431 (Luminex); type: cell-based; conditions: for secreted IL-8 levels: A431, with or without TGFa or TNFa, 24 h, supernatant
Experimental: (§4) Tumor cells were treated with anti-EGFR agents and this was followed by treatment with or without TGF alpha or TNF alpha. Secreted chemokines were evaluated in conditioned medium of tumor cells obtained after 24 h. Evaluation was carried out with the Luminex bead technology.
as §2, §3

[1] = tested on: EGFR-dependent signaling cascades, tumor cell lines such as A431; assay: EGFR-dependent signaling cascades in tumor cell lines; type: cell-based; conditions: various tumor cell lines such as A431
IL-8, MCF-7 = assay: Secreted IL-8 levels in MCF-7 (Luminex); type: cell-based; conditions: 100 ng/ml antibody, stimulated with 100 ng/ml TGFa, number of experiments=1
Experimental: as §2, §3

IL-8, PC-3 = assay: Secreted IL-8 levels in PC-3 (Luminex); type: cell-based; conditions: 100 ng/ml antibody, stimulated with 100 ng/ml TGFa, number of experiments=1
Experimental: as §2, §3

STAT3 = assay: Western blotting of STAT3 phosphorylation in keratinocytes; type: cell-based; conditions: with or without TGFa or TNFa, 24 h
Experimental: (§5) In these experiments keratinocytes were treated with different concentrations of anti-EGFR inhibitors followed by treatment with or without TGF alpha or TNF alpha for, approximately, 24 h. Effects of anti-EGFR inhibitors were evaluated using Western blotting.
(§6) After 24 h, cells were lysed and analysed by Western blotting.

IL-8, DiFi = assay: Secreted IL-8 levels in DiFi (Luminex); type: cell-based; conditions: 100 ng/ml antibody, stimulated with 100 ng/ml TGFa, number of experiments=1
Experimental: as §2, §3

[2] = tested on: IL-8, tumor cell lines (DiFi, HT29, A431, MCF-7, PC-3 and U87 MG); assay: Secreted IL-8 levels in different tumor cell lines (Luminex); type: cell-based; conditions: stimulated with TGFa, 24 h
Experimental: as §2

RANTES, keratinocytes = assay: Secreted RANTES levels in keratinocytes (Luminex); type: cell-based; conditions: with or without TGFa or TNFa, 24 h, supernatant
Experimental: as §1
(§7) After 24 h, cellular supernatants were collected and levels of RANTES were quantified using the Luminex technology.

RANTES, A431 = assay: Secreted RANTES levels in A431 (Luminex); type: cell-based; conditions: A431, with or without TGFa or TNFa, 24 h, supernatant
Experimental: as §4, §7

ERK1/2 (Thr 202/204) = assay: Western blotting of ERK1/2 phosphorylation in keratinocytes; conditions: with or without TGFa or TNFa, 24 h
IL-8, HT29 = assay: Secreted IL-8 levels in HT29 (Luminex); type: cell-based; conditions: 100 ng/ml antibody, stimulated with 100 ng/ml TGFa, number of experiments=1
Experimental: as §2, §3

COX-2 = assay: Western blotting of COX-2 protein in keratinocytes; type: cell-based; conditions: with or without TGFa or TNFa, 24 h
Experimental: as §5, §6

IP-10, A431 = assay: Secreted IP-10 levels in A431 (Luminex); type: cell-based; conditions: A431, with or without TGFa or TNFa, 24 h, supernatant
Experimental: as §4
(§8) After 24 h, cellular supernatants were collected and levels of IP-10 were quantified using the Luminex technology.

IP-10, keratinocytes = assay: Secreted IP-10 levels in keratinocytes (Luminex); type: cell-based; conditions: with or without TGFa or TNFa, 24 h, supernatant
Experimental: as §1, §8

| phosphorylation of EGFR (Tyr 1068) (EGFR (Tyr 1068)) | Compound | secreted IL-8 levels (IL-8, keratinocytes) | IL-8 levels (IL-8, U87MG) [% control] | secreted IL-8 levels (IL-8, A431) | IL-8 levels (IL-8, A431; A431, 100 ng/ml antibody, stimulated with 100 ng/ml TGFa, number of experiments=1) [% control] | EGFR-dependent signaling cascades [1] | IL-8 levels (IL-8, MCF-7) [% control] | IL-8 levels (IL-8, PC-3) [% control] | phosphorylation of STAT3 (STAT3) | IL-8 levels (IL-8, DiFi) [% control] | secreted IL-8 levels [2] | secreted RANTES levels (RANTES, keratinocytes) | secreted RANTES levels (RANTES, A431) | phosphorylation of ERK1/2 (Thr 202/204) (ERK1/2 (Thr 202/204)) | IL-8 levels (IL-8, HT29) [% control] | expression of COX-2 (COX-2) | secreted IP-10 levels (IP-10, A431) | secreted IP-10 levels (IP-10, keratinocytes) |
| --- | --- | --- | --- | --- | --- | --- | --- | --- | --- | --- | --- | --- | --- | --- | --- | --- | --- | --- |
| prevented phosphorylation | Matuzumab: humanized monoclonal antibody 425 directed to the EGF receptor | down-regulated IL-8 in a dose-dependent manner | 58 | down-regulated IL-8 in a dose-dependent manner | 15 | interferes with EGFR-dependent signaling cascades | 49 | 76 | prevented phosphorylation of STAT3 | 28 | down-regulated IL-8 in all tumor cell lines investigated in a dose-dependent manner | up-regulated RANTES in a dose-dependent manner | up-regulated RANTES in a dose-dependent manner | prevented phosphorylation | 30 | induced expression of COX-2 | up-regulated IP-10 in a dose-dependent manner | up-regulated IP-10 in a dose-dependent manner |
| – | COc1cc2ncnc(Nc3ccc(F)c(Cl)c3)c2cc1OCCCN1CCOCC1 [Iressa, gefitinib, reference compound] | down-regulated IL-8 in a dose-dependent manner | – | down-regulated IL-8 in a dose-dependent manner | – | – | – | – | prevented phosphorylation of STAT3 | – | – | up-regulated RANTES in a dose-dependent manner | up-regulated RANTES in a dose-dependent manner | prevented phosphorylation | – | induced expression of COX-2 | up-regulated IP-10 in a dose-dependent manner | up-regulated IP-10 in a dose-dependent manner |

From patent publication US20110244506A1, “EGFR DEPENDENT MODULATION OF CHEMOKINE EXPRESSION AND INFLUENCE ON THERAPY AND DIAGNOSIS OF TUMORS AND SIDE EFFECTS THEREOF” (Merck Patent GmbH, priority 2005, published 2011)
